Read-outs that look alike come from different tables or passages of the source.
Columns and labels:
[1] = system: B16F10; assay: Growth inhibition test (MTT), cytotoxic action on tumour cell lines; format: cell-based; conditions: Mus musculus, B16-F10, 144 h, read-out: IC50 values of the cytotoxic action on tumour cell lines, B16F10
Experimental: (§1) The human large intestine cell lines SW 480 and HT29 (ATCC No. CCL 228 and HTB38), the human breast cell lines MDA-MB 231, MCF-7 and BT20 (ATCC No. HTB-, 26, 22 and 23) and the mouse melanoma cell line B16F 10 (CRL 6475) were grown to confluence in Roux dishes in RPMI 1640 medium with addition of 10% FCS. They were then trypsinized and taken up in RPMI plus 10% FCS to a cell count of 50,000 cells or, for B16F10, 20,000 cells per ml. 100 μl of cell suspension/well were added to a 96 microwell plate and incubated at 37° C. for 1 day in a CO2 incubator. A further 100 μl of RPMI medium and 1 μl of DMSO were then added with the test substances. The growth was checked after day 6. For this, 25 μl of MTT solution (3-(4,5-dimethylthiazol-2-yl)-2,5-diphenyltetrazolium bromide) was added to each well at a starting concentration of 5 mg/ml of H2O. The plate was incubated at 37° C. for 5 hours in a CO2 incubator. The medium was then aspirated and 100 μl of i-propanol/well were added. After shaking with 100 μl of H2O for 30 min, the extinction was measured at 595-nm using a Multiplate Reader (BIO-RAD 3550-UV).
(§2) The cytostatic action is indicated in Table 2 as an IC50 value, in each case for the individual cell lines.

[2] = system: HT 29; assay: as above; format: cell-based; conditions: Homo sapiens, HT-29, 144 h, read-out: IC50 values of the cytotoxic action on tumour cell lines, HT 29
Experimental: as §1, §2

[3] = system: MCF7; assay: as above; format: cell-based; conditions: Homo sapiens, MCF7, 144 h, read-out: IC50 values of the cytotoxic action on tumour cell lines, MCF7
Experimental: as §1, §2

[4] = system: MDA-MB 231; assay: as above; format: cell-based; conditions: Homo sapiens, MDA-MB-231, 144 h, read-out: IC50 values of the cytotoxic action on tumour cell lines, MDA-MB 231
Experimental: as §1, §2

[5] = system: SW480; assay: as above; format: cell-based; conditions: Homo sapiens, SW480, 144 h, read-out: IC50 values of the cytotoxic action on tumour cell lines, SW480
Experimental: as §1, §2

[6] = system: BT20; assay: as above; format: cell-based; conditions: Homo sapiens, BT-20, 144 h, read-out: IC50 values of the cytotoxic action on tumour cell lines, BT20
Experimental: as §1, §2

[7] = molecular target: T1, αvβ3 receptor (αvβ3 from human A375 cells) (Homo sapiens, UniProt P05106+P06756); assay: αvβ3 binding test (echistatin displacement, WGA SPA beads)
T1 construct: αvβ3 from human A375 cells was purified analogously to a procedure which was described by Wong et al; endogenous in cells; host or cells: human A375 cells; the receptor was purified from the cells and used detergent-solubilised (n-octyl-glucopyranoside)
Experimental: αvβ3 from human A375 cells was purified analogously to a procedure which was described by Wong et al. (Molecular Pharmacology, 50, 529–537 (1996)). In each case, 10 μl of αvβ3 (5 ng) in TBS pH 7.6, 2 mM CaCl2, 1 mM MgCl2, 1% n-octyl-glucopyranoside (Sigma); 10 μl of test substance in TBS pH 7.6, 0.1% DMSO and 45 μl of TBS pH 7.6, 2 mM CaCl2, 1 mM MgCl2, 1 mM MnCl2 were incubated at room temperature for 1 h. In each case, 25 μl of WGA SPA beads (Amersham, 4 mg/ml) and 10 μl of echistatin ([…], Amersham, chloramine-T labelled) were then added. After 16 hours at room temperature, the samples were measured in a scintillation measuring apparatus (Wallac 1450).

[8] = αvβ3 purified from human A375 cells, labelled echistatin, read-out: IC50 values of the binding to the αvβ3 receptor

T1 sequence (P06756 31-889 limits assumed): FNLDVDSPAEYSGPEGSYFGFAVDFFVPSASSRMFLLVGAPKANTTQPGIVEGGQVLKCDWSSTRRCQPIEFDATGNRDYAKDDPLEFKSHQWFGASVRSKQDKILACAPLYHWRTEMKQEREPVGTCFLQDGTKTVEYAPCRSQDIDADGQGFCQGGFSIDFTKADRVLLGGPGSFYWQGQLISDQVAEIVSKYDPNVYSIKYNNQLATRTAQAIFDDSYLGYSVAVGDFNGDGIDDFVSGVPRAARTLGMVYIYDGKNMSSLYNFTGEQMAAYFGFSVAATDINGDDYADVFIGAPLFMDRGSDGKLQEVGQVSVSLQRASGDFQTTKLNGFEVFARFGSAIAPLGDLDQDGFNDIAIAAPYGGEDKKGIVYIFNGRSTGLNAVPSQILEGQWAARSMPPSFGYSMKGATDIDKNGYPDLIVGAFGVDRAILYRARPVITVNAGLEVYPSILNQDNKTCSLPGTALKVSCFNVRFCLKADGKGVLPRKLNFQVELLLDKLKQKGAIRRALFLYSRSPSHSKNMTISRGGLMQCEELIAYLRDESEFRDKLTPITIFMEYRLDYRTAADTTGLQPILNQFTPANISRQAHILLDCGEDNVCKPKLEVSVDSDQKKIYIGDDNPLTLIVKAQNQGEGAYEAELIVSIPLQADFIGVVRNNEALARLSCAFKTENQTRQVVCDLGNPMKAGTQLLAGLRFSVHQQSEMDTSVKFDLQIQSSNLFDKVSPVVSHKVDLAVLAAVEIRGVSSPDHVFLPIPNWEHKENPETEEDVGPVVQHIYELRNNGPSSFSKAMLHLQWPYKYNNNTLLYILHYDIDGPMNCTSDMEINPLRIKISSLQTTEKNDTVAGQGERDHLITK
T1 sequence (P06756 891-1048 partner limits assumed): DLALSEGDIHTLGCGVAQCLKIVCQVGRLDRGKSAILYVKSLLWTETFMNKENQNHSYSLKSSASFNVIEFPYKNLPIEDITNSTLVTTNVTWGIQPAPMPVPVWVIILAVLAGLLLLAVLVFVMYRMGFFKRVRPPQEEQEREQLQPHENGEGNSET
T1 sequence (P05106 27-788): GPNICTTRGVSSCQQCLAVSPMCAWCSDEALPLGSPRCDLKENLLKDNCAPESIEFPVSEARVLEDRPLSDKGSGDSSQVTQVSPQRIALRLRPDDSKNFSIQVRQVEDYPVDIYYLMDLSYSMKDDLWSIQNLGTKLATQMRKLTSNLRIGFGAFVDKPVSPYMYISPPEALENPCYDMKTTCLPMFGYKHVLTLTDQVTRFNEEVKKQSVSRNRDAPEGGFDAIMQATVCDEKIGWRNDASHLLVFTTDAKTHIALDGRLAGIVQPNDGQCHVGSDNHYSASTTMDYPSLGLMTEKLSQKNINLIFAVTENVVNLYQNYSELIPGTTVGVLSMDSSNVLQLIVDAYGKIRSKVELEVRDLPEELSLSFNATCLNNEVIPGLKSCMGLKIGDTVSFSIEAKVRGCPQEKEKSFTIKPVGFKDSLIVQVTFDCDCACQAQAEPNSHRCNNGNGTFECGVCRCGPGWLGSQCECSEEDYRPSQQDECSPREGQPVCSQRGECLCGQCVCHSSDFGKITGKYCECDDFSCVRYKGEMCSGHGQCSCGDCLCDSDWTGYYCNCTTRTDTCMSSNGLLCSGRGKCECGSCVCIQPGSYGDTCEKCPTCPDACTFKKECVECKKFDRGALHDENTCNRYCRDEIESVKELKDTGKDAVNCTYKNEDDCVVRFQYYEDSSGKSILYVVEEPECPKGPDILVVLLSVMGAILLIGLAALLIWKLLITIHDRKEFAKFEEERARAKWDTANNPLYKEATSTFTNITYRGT

Row | SMILES | IC50 [1] | IC50 [2] | IC50 [3] | IC50 [4] | IC50 [5] | IC50 [6] | IC50 [7, 8] | IC50 [7]
1 | CCCNC(=O)Nc1cccc(-c2ccc(CC(NS(=O)(=O)c3cccc(NC(=S)N[C@@H](Cc4c[nH]cn4)C(=O)N[C@H](C(=O)O[C@]4(CC)C(=O)OCc5c4cc4n(c5=O)Cc5cc6ccccc6nc5-4)C(C)C)c3)C(=O)O)cc2)c1 (stereo partly shown) [Example 3.10] | 800 nM | 350 nM | 200 nM | 200 nM | 300 nM | 400 nM | 154 nM | 
2 | CC[C@@]1(OC(=O)[C@@H](NC(=O)CC[C@H](NC(=O)CC(NC(=O)CNC(=O)c2cccc(NC(=N)N)c2)c2ccccc2)C(=O)O)C(C)C)C(=O)OCc2c1cc1n(c2=O)Cc2cc3ccccc3nc2-1 (stereo partly shown) [Example 1.2] | 4000 nM | 500 nM | 60 nM | 20 nM | 600 nM | 100 nM | 679 nM | 
3 | CC[C@@]1(OC(=O)[C@@H](NC(=O)[C@H](Cc2c[nH]cn2)NC(=O)Nc2cccc(-c3cccc(S(=O)(=O)NC(CC(=O)O)c4ccccc4)c3)c2)C(C)C)C(=O)OCc2c1cc1n(c2=O)Cc2cc3ccccc3nc2-1 (stereo partly shown) [Example 2.10] | 2000 nM | 700 nM | 1500 nM | 400 nM | 1000 nM | 1000 nM | 101 nM | 
4 | CC[C@@]1(OC(=O)[C@@H](NC(=O)[C@H](Cc2c[nH]cn2)NC(=S)Nc2cccc(S(=O)(=O)Nc3cccc(C(CC(=O)O)NS(=O)(=O)c4ccccc4)c3)c2)C(C)C)C(=O)OCc2c1cc1n(c2=O)Cc2cc3ccccc3nc2-1 (stereo partly shown) [Example 2.3] |  | 70 nM | 60 nM | 20 nM | 120 nM | 80 nM |  | 697 nM
5 | CC[C@@]1(OC(=O)[C@@H](NC(=O)[C@H](Cc2cnc[nH]2)NC(=S)Nc2cccc(C(CC(=O)O)NS(=O)(=O)c3cccc(-c4cccc(NC(=O)Nc5nc6ccccc6[nH]5)c4)c3)c2)C(C)C)C(=O)OCc2c1cc1n(c2=O)Cc2cc3ccccc3nc2-1 (stereo partly shown) [Example 3.6] | 2000 nM | 300 nM | 400 nM | 400 nM | 400 nM | 1000 nM |  | 22 nM
6 | CC[C@@]1(OC(=O)C(NC(=O)C(Cc2cnc[nH]2)NC(=S)Nc2cccc(-c3ccc(C[C@H](NS(=O)(=O)CC45CCC(CC4=O)C5(C)C)C(=O)O)cc3)c2)C(C)C)C(=O)OCc2c1cc1n(c2=O)Cc2cc3ccccc3nc2-1 (stereo partly shown) [Example 2.4] | 500 nM | 300 nM | 800 nM | 400 nM | 400 nM | 1500 nM | 110 nM | 
7 | CC[C@@]1(OC(=O)[C@@H](NC(=O)[C@H](Cc2c[nH]cn2)NC(=S)Nc2ccc(S(=O)(=O)NC(CC(=O)O)c3cccc(NS(=O)(=O)c4cccc(NC(=N)N)c4)c3)cc2)C(C)C)C(=O)OCc2c1cc1n(c2=O)Cc2cc3ccccc3nc2-1 (stereo partly shown) [Example 3.2] | 1000 nM | 200 nM | 200 nM | 200 nM | 400 nM | 200 nM |  | 45 nM
8 | CCCNC(=O)Nc1cccc(S(=O)(=O)Nc2cccc(C(CC(=O)O)NC(=S)Nc3cccc4nc5c(cc34)Cn3c-5cc4c(c3=O)COC(=O)[C@]4(O)CC)c2)c1 (stereo partly shown) [Example 3.16] | 1000 nM | 100 nM | 300 nM | 1000 nM | 500 nM | 700 nM | 51 nM | 
9 | CC[C@@]1(OC(=O)[C@@H](NC(=O)Nc2cccc(-c3ccc(C[C@H](NS(=O)(=O)CC45CCC(CC4=O)C5(C)C)C(=O)O)cc3)c2)C(C)C)C(=O)OCc2c1cc1n(c2=O)Cc2cc3ccccc3nc2-1 (stereo partly shown) [Example 2.8] | 200 nM | 10 nM | 10 nM | 15 nM | 20 nM | 9 nM | 83 nM | 
10 | CCC1(OC(=O)[C@@H](NC(=O)[C@H](Cc2c[nH]cn2)NC(=O)Nc2cccc(-c3ccc(S(=O)(=O)NC(CC(=O)O)c4ccccc4)cc3)c2)C(C)C)C(=O)OCc2c1cc1n(c2=O)Cc2cc3ccccc3nc2-1 (stereo partly shown) [Example 2.11] | 800 nM | 400 nM | 500 nM | 600 nM | 600 nM | 400 nM | 197 nM | 
11 | CCCNC(=O)Nc1cccc(-c2ccc(CC(NC(=O)N[C@H](C(=O)O[C@]3(CC)C(=O)OCc4c3cc3n(c4=O)Cc4cc5ccccc5nc4-3)C(C)C)C(=O)O)cc2)c1 (stereo partly shown) [Example 3.14] | 200 nM | 100 nM | 80 nM | 150 nM | 150 nM | 100 nM | 21 nM | 
12 | CC[C@@]1(OC(=O)[C@@H](NC(=O)[C@H](CCC(=O)O)NC(=S)Nc2cccc(C(=O)NCC(=O)NC(CC(=O)O)c3ccccc3)c2)C(C)C)C(=O)OCc2c1cc1n(c2=O)Cc2cc3ccccc3nc2-1 (stereo partly shown) [Example 2.2] |  | 300 nM | 300 nM | 300 nM | 500 nM | 400 nM | 1500 nM | 
13 | CC[C@@]1(OC(=O)[C@@H](NC(=O)[C@H](Cc2cnc[nH]2)NC(=O)Nc2cccc(-c3ccc(C[C@H](NS(=O)(=O)CC45CCC(CC4=O)C5(C)C)C(=O)O)cc3)c2)C(C)C)C(=O)OCc2c1cc1n(c2=O)Cc2cc3ccccc3nc2-1 (stereo partly shown) [Example 2.7] | 3000 nM | 600 nM | 800 nM | 900 nM | 900 nM | 5000 nM |  | 86 nM
14 | CC[C@@]1(OC(=O)[C@@H](NC(=O)[C@H](CCCCNC(=O)OCC2c3ccccc3-c3ccccc32)NC(=O)Nc2cccc(-c3ccc(C[C@H](NS(=O)(=O)CC45CCC(CC4=O)C5(C)C)C(=O)O)cc3)c2)C(C)C)C(=O)OCc2c1cc1n(c2=O)Cc2cc3ccccc3nc2-1 (stereo partly shown) [Example 2.6] | 10000 nM | 3000 nM | 5000 nM | 3000 nM | 3000 nM | 9000 nM |  | 239 nM
15 | CC[C@@]1(OC(=O)[C@@H](NC(=O)CNC(=O)CCCC(=O)NC(CC(=O)O)c2cccc(NS(=O)(=O)c3cccc(NC(=N)N)c3)c2)C(C)C)C(=O)OCc2c1cc1n(c2=O)Cc2cc3ccccc3nc2-1 (stereo partly shown) [Example 3.19] | 6000 nM | 500 nM | 5000 nM | 2000 nM | 1500 nM | 4000 nM | 48 nM | 
16 | CC[C@@]1(OC(=O)[C@@H](NC(=O)[C@H](Cc2c[nH]cn2)NC(=S)Nc2ccc(C(=O)NC(CC(=O)O)c3cccc(NS(=O)(=O)c4cccc(NC(=N)N)c4)c3)cc2)C(C)C)C(=O)OCc2c1cc1n(c2=O)Cc2cc3ccccc3nc2-1 (stereo partly shown) [Example 3.3] |  | 90 nM | 100 nM | 100 nM | 300 nM | 150 nM |  | 45 nM
17 | CC[C@@]1(OC(=O)[C@@H](NC(=O)[C@H](CCCCNC(=O)CC(NC(=O)CNC(=O)c2cccc(NC(=N)N)c2)c2ccccc2)NC(=S)Nc2ccccc2)C(C)C)C(=O)OCc2c1cc1n(c2=O)Cc2cc3ccccc3nc2-1 (stereo partly shown) [Example 1.1] |  | 120 nM | 90 nM | 100 nM | 200 nM | 150 nM | 873 nM | 
18 | CC[C@@]1(O)C(=O)OCc2c1cc1n(c2=O)Cc2cc3c(NC(=S)NC(CC(=O)O)c4cccc(NS(=O)(=O)c5cccc(NC(=N)N)c5)c4)cccc3nc2-1 (stereo partly shown) [Example 3.17] | 5000 nM | 600 nM |  | 3000 nM | 800 nM | 5000 nM | 66 nM | 

Source: patent US7220824B1, “Integrin-mediated drug targeting” (Bayer Aktiengesellschaft, priority 2000, dated 2007)
